Read-outs that look alike come from different tables or passages of the source. One block for each compound: values may come before it.
Tests used:
[1] = system: mitochondrial cytochrome P450s; assay: in vitro; settings: rat, pH 7.4, inhibition of melatonin O-demethylation (NAS formation)
[2] = system: rat microsomal cytochrome P450s; assay: in vitro; settings: microsomes, pH 7.4, inhibition of melatonin O-demethylation (NAS formation)
[3] = system: rat liver postmitochondrial supernatant; settings: cited from earlier work
human liver microsomes = settings: cited from earlier work
NADH oxidase = settings: isolated rat liver mitochondria; cited from earlier work
[4] = system: rat microsomal cytochrome P450s; settings: microsomes
[5] = system: mitochondrial cytochrome P450s; settings: mitochondria
CYP1A2 = settings: liver slices and microsomes of treated rats; cited from earlier work
[6] = 6-HMel formation from melatonin

inhibition at 60 min, 50 μM [1]: 74%
inhibition at 60 min, 50 μM [2]: 38%
SMILES: CCN(CC)C(=S)S [Diethyldihydrocarbamate, diethyldithiocarbamate]

inhibition at 60 min, 20 μM [1]: 63%
inhibition at 60 min, 20 μM [2]: 27%
SMILES: Cc1nc2c([nH]1)c(=O)n(C)c(=O)n2Cc1ccco1 [Furafylline, furafylline]
inhibition of the conversion of melatonin to 6-sulphatoxymelatonin [3]: inhibited markedly

inhibition at 60 min, 5 μM [1]: 49%
inhibition at 60 min, 5 μM [2]: 52%
SMILES: CC(=O)N1CCN(c2ccc(OCC3COC(Cn4ccnc4)(c4ccc(Cl)cc4Cl)O3)cc2)CC1 (stereo not shown) [Ketoconazole, ketoconazole]
inhibition of melatonin metabolism (human liver microsomes): only weak inhibitors
inhibition of NADH oxidase (NADH oxidase): dose-dependent inhibition

inhibition at 60 min, 100 μM [1]: 81%
inhibition at 60 min, 100 μM [2]: 78%
SMILES: COc1ccc2[nH]c([S+]([O-])Cc3ncc(C)c(OC)c3C)nc2c1 (stereo not shown) [Omeprazole, omeprazole]

inhibition at 60 min, 5 μM [1]: 33%
inhibition at 60 min, 5 μM [2]: 38%
SMILES: C=C[C@H]1C[N@@]2CC[C@H]1C[C@@H]2[C@@H](O)c1ccnc2ccc(OC)cc12 [Quinidine, quinidine]
inhibition of melatonin metabolism (human liver microsomes): only weak inhibitors

SMILES: COc1ccc2[nH]cc(CCNC(C)=O)c2c1 [melatonin, N-acetyl-5-methoxytryptamine]
Km1 (high affinity component) [4, 6]: 48.33 ± 9.17 µM
Km2 (low affinity component) [4, 6]: 496.8 ± 53.78 µM
Km1 (high affinity component) ([4]; NAS formation from melatonin): 25.86 ± 1.39 µM
Km2 (low affinity component) ([4]; NAS formation from melatonin): 953.3 ± 85.95 µM
Km2 (low affinity component) [5, 6]: 406.6 ± 19.84 µM
Km1 (high affinity component) ([5]; NAS formation from melatonin): 13.96 ± 2.37 µM

inhibition at 60 min, 10 μM [1]: 27%
SMILES: Nc1ccc(S(=O)(=O)Nc2ccnn2-c2ccccc2)cc1 [sulfaphenazole]

SMILES: O=c1cc(-c2ccccc2)oc2c1ccc1ccccc12 [α-naphthoflavone]
increase in melatonin conversion to 6-sulphatoxymelatonin (CYP1A2): 3 fold

From article PMC2587488 (Journal of pineal research, 2008)
